Measured values from patent US20240199676A1, “ANTIVIRAL COMPOUNDS AND METHODS OF MAKING AND USING THE SAME” (Gilead Sciences, Inc., priority 2022, published 2024).

Assays:
[1] = GI S9 stability (Ex. Z), human intestinal S9; type: in vitro ADME; conditions: pooled intestinal S9 fractions; human intestinal S9, 1.0 mg/mL protein, 2 μM substrate, pH 7.4; read-out: GIS9 Human T½ (per Ex. Z)
Experimental: Example Z: GI S9 stability data:
Stock solutions of test compounds in dimethyl sulfoxide (DMSO) having a final concentration of 10 mM were prepared and used in all experiments. Sekisui XenoTech (Kansas City, KS) provided pooled intestinal S9 fractions. All other chemicals were purchased from Sigma-Aldrich (St. Louis, MO) or VWR (West Chester, PA). Internal Standard/Quench (IS/Q) used to stop reactions was 100 nM labetalol in (by volume) methanol (10%) and acetonitrile (90%).
Stability in Intestinal S9 Fractions: Duplicate aliquots of test compound or positive control substrate were added to S9 stock diluted with phosphate buffered saline (137 mM NaCl, 2.7 mM KCl, 10 mM phosphate buffer), pH 7.4, to obtain a protein concentration of 1.0 mg/mL. The metabolic reactions were initiated by the addition of the substrates to the S9 reaction mixture to a final concentration of 2 μM. At 0, 10, 20, 30, 60 and 120 min, 25 μL aliquots of the reaction mixture were transferred to plates containing 225 μl of IS/Q solution. After quenching, the plates were centrifuged at 3000×g for 30 minutes. 150 μL aliquots of each supernatant were dried down then reconstituted with 300 μL water. Aliquots (10 μL) of the prepared samples were analyzed on a Thermo Q-Exactive mass spectrometer as described below.
Liquid Chromatography—Mass Spectrometry: Quantification of test compounds and control substrate was performed by analyte/internal standard peak area ratio (PAR) values measured on a Thermo Q-Exactive mass spectrometer coupled to a Dionex UltiMate 3000 HPLC with a Leap Technologies HTC PAL autosampler. The column used for analysis was a Waters Acquity BEH C18 (1.7 μm particle size, 2.1×50 mm). Mobile phase A consisted of 0.1% (v/v) formic acid in water. Mobile phase B consisted of 0.1% (v/v) formic acid in acetonitrile. Elution of analytes was achieved by a series of linear gradients varying the proportions of A and B. The mass spectrometer was calibrated on a weekly basis and mass tolerance of 5 ppm was used.
Metabolic stabilities in S9 fractions were determined by measuring the rates of disappearance of test compound and positive control substrate.
Data (% of substrate remaining) were plotted on a semi-log scale and fitted using an exponential decline model:
Where Ct—% of substrate remaining at time=t; C0—% of substrate remaining at time=0; t—time; T½—half-life The Half-life (T½) is determined by the following equation: […]
Assuming a first-order reaction, the slope (k) is extrapolated from the aforementioned plotted data.

[2] = test system: Human Rhinovirus 16 (HRV16) in H1-HeLa cells; assay: H1-HeLa HRV-CTG 384-well Assay (Ex. Y), HRV16; type: cell-based; conditions: Rhinovirus A, 96 h; H1-HeLa cells, HRV16 MOI 0.25, 4 days, Celltiter-Glo; read-out: EC50 H1-HeLa_HRV16_HRV-CTG 384-well Assay (per Ex. Y)
Description: (§1) Example Y: H1-HeLa HRV-CTG 384-well Assay
(§2) H1-Hela cell line (ATCC, Manassas, VA, Cat #CRL-1958) was maintained in Dulbecco's […] (DMEM) (Corning, New York, NY, Cat #15-018CM) supplemented with 10% fetal bovine serum (FBS) (Hyclone, Logan, UT, Cat #SH30071-03), and 1× Penicillin-Streptomycin-L-Glutamine (Corning, New York, NY, Cat #30-009-CI). Cells were passaged 2 times per week to maintain sub-confluent densities and were used for experiments at passage 5-30. The Human Rhinovirus 1B (HRV1B) (ATCC, Manassas, VA, Cat #VR-1645) , Human Rhinovirus 14 (HRV14) (ATCC, Manassas, VA, Cat #VR-284), and Human Rhinovirus 16 (HRV16) (ATCC, Manassas, VA, Cat #BR-283) was obtained through ATCC. Viral infection was monitored by determining viability of H1-HeLa cells as described below.
(§3) Test molecules are prepared in 100% DMSO in 384-well polypropylene plates (Greiner, Monroe, NC, Cat #784201) with 8 compounds per plate in grouped replicates of 4 at 10 serially diluted concentrations (1:3). The serially diluted compounds were transferred to low dead volume Echo plates (Labcyte, Sunnyvale, CA, Cat #LP-0200).
(§4) The test compounds were spotted to 384-well assay plates (Greiner, Monroe, NC, Cat#781091) at 200 nL per well using an Echo acoustic dispenser (Labcyte, Sunnyvale, CA). H1-HeLa cells were harvested and suspended in DMEM (supplemented with 2% FBS and 1× Penicillin-Streptomycin-L-Glutamine) and seeded to the pre-spotted assay plates at 5,000 cells per well in 30 μL. HRV1B, HRV14, and HRV16 was diluted in DMEM (supplemented with 2% FBS and 1× Penicillin-Streptomycin-L-Glutamine) at 97.1 million Infectious Units (IU) per mL, 151 million IU per mL and 221 million IU per mL respectively. 10 μL of virus per well was added to the assay plates containing cells and compounds, for an MOI of 0.5, 1.0, and 0.25 respectively. The assay plates were incubated for 4 days at 37° C. and 5% CO2. At the end of incubation, Celltiter-Glo (Promega, Madison, WI, Cat #(Ga7573) was prepared. The assay plates and Celltiter-Glo reagent were equilibrated to room temperature for at least 15 minutes. 40 μL per well of Celltiter-Glo reagent was added and the plates were incubated at room temperature for 15 minutes before reading the luminescence signal on an EnVision multimode plate reader (Perkin Elmer, Waltham, MA). Rupintrivir was used as positive control and DMSO was used as negative control. Values were normalized to the positive and negative controls (as 0% and 100% replication, respectively) and data was fitted using non-linear regression analysis by Gilead's dose response tool. The EC50 value for each compound was defined as the concentration reducing viral replication by 50%.

[3] = test system: Human Rhinovirus 1B (HRV1B) in H1-HeLa cells; assay: H1-HeLa HRV-CTG 384-well Assay (Ex. Y), HRV1B; type: cell-based; conditions: Rhinovirus A, 96 h; H1-HeLa cells, HRV1B MOI 0.5, 4 days, Celltiter-Glo; read-out: EC50 H1-HeLa_HRV1B_HRV-CTG 384-well Assay (per Ex. Y)
Description: as §1, §2, §3, §4

SMILES	half-life at 2 μM [1] [h]	EC50 [2] [µM]	EC50 [3] [µM]
CC(C)C(=O)Nc1ncnn2c([C@@H]3O[C@](C#N)(CO)[C@@H](O)[C@H]3O)ccc12 [Compound 30, N-(7-((2S,3R,4S,5R)-5-cyano-3,4-dihydroxy-5-(hydroxymethyl)tetrahydrofuran-2-yl)pyrrolo[2,1-f][1,2,4]triazin-4-yl)isobutyramide]	13.2	50	27.5
N#C[C@]1(COC(=O)CC2CCC2)O[C@@H](c2ccc3c(N)ncnn23)[C@H](O)[C@@H]1O [Compound 16, ((2R,3S,4R,5S)-5-(4-aminopyrrolo[2,1-f][1,2,4]triazin-7-yl)-2-cyano-3,4-dihydroxytetrahydrofuran-2-yl)methyl 2-cyclobutylacetate]	0.233	7.15	3.14
CC1(C(=O)OC[C@@]2(C#N)O[C@@H](c3ccc4c(N)ncnn34)[C@H](O)[C@@H]2O)CC1 [Compound 15, ((2R,3S,4R,5S)-5-(4-aminopyrrolo[2,1-f][1,2,4]triazin-7-yl)-2-cyano-3,4-dihydroxytetrahydrofuran-2-yl)methyl 1-methylcyclopropane-1-carboxylate]	1.73	31.1	22.8
CC(C)CC(=O)OC[C@@]1(C#N)O[C@@H](c2ccc3c(N)ncnn23)[C@H](O)[C@@H]1O [Compound 3, ((2R,3S,4R,5S)-5-(4-aminopyrrolo[2,1-f][1,2,4]triazin-7-yl)-2-cyano-3,4-dihydroxytetrahydrofuran-2-yl)methyl 3-methylbutanoate]	0.7	13.2	8.84
CC1(CC(=O)OC[C@@]2(C#N)O[C@@H](c3ccc4c(N)ncnn34)[C@H](O)[C@@H]2O)CCC1 [Compound 33, ((2R,3S,4R,5S)-5-(4-aminopyrrolo[2,1-f][1,2,4]triazin-7-yl)-2-cyano-3,4-dihydroxytetrahydrofuran-2-yl)methyl 2-(1-methylcyclobutyl)acetate]	2.57	50	35.1
CCC(C)(C)C(=O)OC[C@@]1(C#N)O[C@@H](c2ccc3c(N)ncnn23)[C@H](O)[C@@H]1O [Compound 35, ((2R,3S,4R,5S)-5-(4-aminopyrrolo[2,1-f][1,2,4]triazin-7-yl)-2-cyano-3,4-dihydroxytetrahydrofuran-2-yl)methyl 2,2-dimethylbutanoate]	4.55	48.2	19.2
CC1(C)CC(C(=O)OC[C@@]2(C#N)O[C@@H](c3ccc4c(N)ncnn34)[C@H](O)[C@@H]2O)C1 [Compound 17, ((2R,3S,4R,5S)-5-(4-aminopyrrolo[2,1-f][1,2,4]triazin-7-yl)-2-cyano-3,4-dihydroxytetrahydrofuran-2-yl)methyl 3,3-dimethylcyclobutane-1-carboxylate]	0.217	7.57	3.2
